# Several values for one entry are separate records, joined by “and”; a condition that tells them apart may be missing. Equal entries are not always repeated.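 Exposure lasted 48 hours, with cells grown in 96-well plates and compounds tested at five concentrations. GI50 is the concentration that inhibits growth by half. TGI: concentration producing complete growth inhibition.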
# Columns and labels:
# Assay in all cases: NCI-60 cell line screen, 48 h
# CAKI-1 renal = system: CAKI-1 renal
# EKVX NSCLC = system: EKVX NSCLC
# MDA-MB-435 = system: MDA-MB-435
# K-562 leukemia = system: K-562 leukemia
# IGROV1 ovarian = system: IGROV1 ovarian
# NCI-H23 lung = system: NCI-H23 lung
# M14 melanoma = system: M14 melanoma
# SR leukemia = system: SR leukemia
# SK-MEL-28 melanoma = system: SK-MEL-28 melanoma
# SNB-19 CNS = system: SNB-19 CNS
SMILES,GI50 (CAKI-1 renal),TGI (CAKI-1 renal) [µM],GI50 (EKVX NSCLC) [µM],TGI (EKVX NSCLC),GI50 (MDA-MB-435),TGI (MDA-MB-435),GI50 (K-562 leukemia) [µM],TGI (K-562 leukemia),GI50 (IGROV1 ovarian),TGI (IGROV1 ovarian),GI50 (NCI-H23 lung),TGI (NCI-H23 lung),GI50 (M14 melanoma) [µM],TGI (M14 melanoma),GI50 (SR leukemia),TGI (SR leukemia),GI50 (SK-MEL-28 melanoma) [µM],TGI (SK-MEL-28 melanoma) [µM],GI50 (SNB-19 CNS),TGI (SNB-19 CNS)
Oc1ccc2ccccc2c1-c1nnc(CCCCCCCCc2nnc(-c3c(O)ccc4ccccc34)o2)o1,0.698 µM,3.11,6.7,25 µM and > 100 µM,3.5 µM,25 µM and > 100 µM,1.68,25 µM and > 57.5 µM,11.6 µM,25 µM and 98.6 µM,1.22 µM,6.33 µM and > 62.2 µM,4.77,25 µM and 55.1 µM,1.6 µM and 0.28 µM,25 µM and 11.9 µM,> 25,> 68.5,17.6 µM,25 µM and > 100 µM
CC1(C)OC[C@@H](/C=C\CCO[Si](c2ccccc2)(c2ccccc2)C(C)(C)C)N1C(=O)c1ccccc1,,> 100,,25.8 µM,,> 100 µM,,52.1 µM,,> 100 µM,,96.7 µM,,32.8 µM,,23.7 µM,,> 100,,> 100 µM
CCCCCCCCCCCCCCCCP(=O)(O)OP(=O)(O)OCC1OC(n2ccc(N)nc2=O)C(O)C1O (stereo not given),75.8 µM and 11.9 µM,> 100,,> 100 µM,> 100 µM and 14.6 µM,> 100 µM,,> 100 µM,62.4 µM and 26 µM,> 100 µM,> 100 µM and 13.9 µM,> 100 µM,,> 100 µM,,23.7 µM,,> 100,70.5 µM and 16.1 µM,> 100 µM
CC(=O)N[C@@H](Cc1ccc(O)cn1)C(=O)NCc1ccc2c(c1)OCO2,,> 100,,> 100 µM,,> 100 µM,,> 100 µM,,> 100 µM,,> 100 µM,,> 100 µM,,> 100 µM,,> 100,,> 100 µM
C/C(=N\N=C(N)N)c1c(C(=O)OCCCCCCOC(=O)c2nc3sccn3c2/C(C)=N/N=C(N)N)nc2sccn12,,> 100,,> 100 µM,,> 100 µM,,50.1 µM,,> 100 µM,,> 100 µM,,> 100 µM,,41.2 µM,,> 100,,> 100 µM
O=c1oc2ccccc2cc1-c1nc2ccc([N+](=O)[O-])cc2o1,,> 100,,> 100 µM,,> 100 µM,,> 100 µM,,> 100 µM,,> 100 µM,,> 100 µM,,> 100 µM,,> 100,,68.5 µM
O=C1c2cc3c(cc2CC12Cc1cc4c(cc1C2)CCC4)CCC3,,> 100,,> 100 µM,,> 100 µM,,> 100 µM,,> 100 µM,,> 100 µM,,> 100 µM,,> 100 µM,,> 100,,> 100 µM

# — PubChem BioAssay (NCI)
